Values quoted from earlier work in PMC4918035, “A human and animal model-based approach to investigating the anti-inflammatory profile and potential of the 5-HT2B receptor antagonist AM1030” (Journal of Inflammation (London, England), 2016).

Biological target: T1, 5-HT2B receptor (Homo sapiens, UniProt P41595)
T1 construct: gene HTR2B
Test: receptor binding (Ki) and functional inhibition (IC50 […]); assay details not described

T1 sequence (P41595 whole entry): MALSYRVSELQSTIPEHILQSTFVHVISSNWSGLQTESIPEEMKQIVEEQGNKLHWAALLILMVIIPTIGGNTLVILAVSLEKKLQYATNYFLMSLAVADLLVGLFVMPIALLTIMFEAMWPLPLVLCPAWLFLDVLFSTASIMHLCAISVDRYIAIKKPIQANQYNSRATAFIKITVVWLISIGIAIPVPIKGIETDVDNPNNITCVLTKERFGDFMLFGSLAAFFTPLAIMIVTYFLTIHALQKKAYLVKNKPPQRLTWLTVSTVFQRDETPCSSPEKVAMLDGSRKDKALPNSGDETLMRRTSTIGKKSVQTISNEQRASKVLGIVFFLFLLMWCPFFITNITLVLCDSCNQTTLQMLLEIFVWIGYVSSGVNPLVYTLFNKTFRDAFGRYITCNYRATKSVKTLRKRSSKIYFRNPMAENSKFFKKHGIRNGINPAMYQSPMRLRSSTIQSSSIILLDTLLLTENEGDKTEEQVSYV

## AM1030
  Ki: 330 nM
